Blank lines part the entries; values can stand above or below the compound they belong to.
Assays:
Assay type in all cases: physicochemical
[1] = Hydrolysis (deprotection) rate of protected triazabutadienes; details: relative to ethyl carbamate 7, FIG. 8G
Experimental: The reaction is assumed to be second order with the addition of hydroxide to be the rate-determining step.
Without wishing to limit the present invention to any theory or mechanism, it is believed that this can be rationalized by a model whereby the carbonyl is stabilized by being more electron rich and thus less prone to nucleophilic attack.
The reaction is assumed to be second order with the addition of hydroxide to be the rate-determining step. […] Compound was in a concentration of 31 μM in 25 mM sodium borate buffer of pH 10 with scans every 60 seconds. […] Scans were obtained every 60 seconds.

[2] = Decomposition in D2O / buffers followed by NMR; details: for Compound consumed after 24 hours: D2O, in the dark
Experimental: For decomposition experiments, buffers were made to the appropriate pH in a 9:1 mix of H2O:D2O. These solutions were added to the compound being assayed such that the buffer capacity was at least 10 fold the concentration of the compound. Some experiments used 5 mg compound in 0.5 mL of buffer (e.g., pH 5 acetate buffer at 25 degrees C.). These were immediately inserted into an NMR instrument and scans were taken at even time intervals to calculate the half-life of the compound based on integration.
(§1) To render the triazabutadiene water-soluble, methyl imidazole was alkylated with propane sultone to provide the Zwitterionic NHC precursor Compound 5a (see FIG. 6E). […] Compound 6a was highly colored, so its pH dependence was studied using UV/vis. The reactions were not only pH-, but also scan-frequency dependent. Upon finding this, the stability of Compound 6a was studied in D2O in the dark using NMR. Even in the dark it was unstable, but not in the diazonium-forming way. Both Compound 6b and a more hindered mesityl (Mes) substituted Compound 6c (see FIG. 6E) were synthesized to stabilize what was initially considered to be a rearrangement pathway that could be blocked by steric repulsion. […] Dissolution in 0.1 N NaOH rendered all compounds stable (e.g., no detectable degradation after 24 hours in the dark).
As mentioned above, Compound 6c was reasonably stable in pure D2O. Upon adjusting the pH to 5 with HCl, a rapid initial consumption of Compound 6c to Compound 7 (see FIG. 6E) and a benzenediazonium salt was noted. After this initial burst of reactivity, a slowing and apparent arresting of the reaction was noted. At this pH the hydronium was the limiting reagent. All future reactions were run in buffers with a buffer capacity sufficient to maintain a large excess of hydronium ions. The experiments were performed in 90:10 H2O:D2O buffered solutions to minimize considerations of pH vs. pD. The decomposition to diazonium salts and Compound 7 was measured as a function of pH in phosphate/citrate buffers from pH 4-7 and in a phosphate buffer from pH 6-8. All runs provided linear correlations of concentration and time, indicating a pseudo-zero order reaction (first order with respect to hydronium ion with a large excess of hydronium ions). While the peaks for Compound 7 remained constant, the peaks associated with Compound 6c drifted downfield as the reaction progressed. This drifting was highly reproducible across samples and buffers, but the underlying cause is not understood at this time. A sigmoidal correlation between rate and buffer pH centered at pH 6 was obtained. When resorcinol was not added to consume the diazonium species, 4-phenylazophenol (Compound 8) was observed (see FIG. 6F). Compound 8 came from the decomposition of one diazonium ion to phenol followed by reaction with a second diazonium ion. The instability of Compound 6c in a pH 7 phosphate buffer was surprising given the stability in D2O. Compound 6c was tested in a non-buffered 90:10 H2O:D2O solution and observed only […] after 6 hours.
(§2) To further examine the reactivity of this class of compounds, variants Compound 6d and Compound 6e were synthesized (see FIG. 6G). It was hypothesized that the p-methoxy and p-nitro analogs (Compound 6d and Compound 6e, respectively) would display different reactivity profiles. […] After collecting the precipitate and dissolving it in deuterated methanol, no change was observed from a sample of Compound 6e that had never been exposed to a buffered solution. […] It is possible that: 1) that the sodium salt of Compound 6e is much less soluble than the potassium salt; or 2) with different solvating ions present the sulfonate interacts with the electron-poor N2 nitrogen atom of the triazabutadiene to break conjugation and form an insoluble complex (this is backed by a reversible color change of the starting rust-red solid, to the light yellow precipitate). […]

[3] = Photo-induced degradation of triazabutadienes under hand-held UV lamp, followed by NMR; details: buffered borate solution, UV lamp, NMR integration
Experimental: (i) The reaction was monitored by comparing starting materials (A, C, D, and E) with product (B); (ii) Peak absorption and extinction coefficients for all of the compounds were excitable by the UV source used; (iii) Time-dependent conversion of compounds was measured by NMR integration.
Referring to FIG. 5A, in some embodiments, triazabutadiene molecules of the present invention may readily photoisomerize to a more reactive Z-form. As an example, an aqueous solution of Compound A was irradiated with a simple hand-held UV lamp (“365 nm,” measured at 350 nm). Consumption of Compound A was observed after only a few hours. […] Without wishing to limit the present invention to any theory or mechanism, it was hypothesized that if a two-electron process were happening, then Compound A-Z would be more basic than Compound A-E. A 1.0 N NaOH solution of Compound A was treated with light. […] Benzene diazonium ions also absorb UV light to expel nitrogen and generate a benzene radical. In order to resolve if the initial cleavage undergoes a radical homolytic mechanism versus a two-electron heterolytic mechanism, a trapping experiment using resorcinol was conducted. (Resorcinol was chosen because it can serve a dual role as a radical scavenger and a trap benzene diazonium species that could be formed.) An excess of resorcinol was added to a pH 9 borate-buffered solution of Compound A and the mixture was irradiated with light. The known azobenzene, Sudan Orange G, was formed in a 65% yield (versus 4% for the non-irradiated reaction). Derivatives of Compound A were made to examine the effects of electronic perturbations on the light-induced degradation. […] A buffered borate solution was chosen due to its alkaline nature and lack of complicating signals in the NMR experiment. Compounds C-E all have absorption spectra that are well within the range of the UV lamp (see FIG. 5A(ii)).

Solubility observations = assay: Solubility observations
Experimental: It is possible that Compound A may be useful as a photo-catalytic base in the context of organic reactions. […] As noted previously, Compound A is quite stable to an excess of acetic acid in DMSO, showing only 12% degradation over 14 hours at room temperature. […] To confirm that this was due to the acid, a solution of Compound A (in pure DMSO) was irradiated. After four hours of constant irradiation in acid-free DMSO, an E:Z ratio of nearly 50:50 was observed.
(§3) As another non-limiting example, an azide (e.g., NHS-azide) to N-heterocyclic carbene (NHC) route may be used to synthesize triazabutadiene molecules (e.g., see FIG. 6C). For example, as shown in Compound 4 of FIG. 6D, a triazabutadiene molecule was synthesized from dimethyl imidazole derived NHC and phenyl azide. […] This change was confirmed to coincide with diazonium formation by trapping the reactive species with resorcinol to provide known diazo dye Sudan Orange G. When the triazabutadiene molecule (Compound 4) was treated with the much less acidic acetic acid, the same product was obtained.
as §1, §2

[4] = In situ real-time pH measurement upon UV irradiation; details: compared with Compound A
Experimental: In an effort to examine the rate order for the pH-increasing reaction more carefully, in situ, real-time pH measurements were acquired. Compound A was dissolved in water and the pH of the solution was adjusted to 9 such that it would not form Compound B in the absence of light. […] This spike was not at all consistent with the model of the pH increase being solely linked to the concentration of Compound B being generated.
A sample was irradiated and then the light was turned off once the pH of the solution started to increase noticeably. […] The experiment was repeated with increasing times of irradiation, and a saw-tooth pattern was obtained. The process was not completely reversible due to some degradation to Compound B. Indeed, triazabutadiene Compound A can serve a dual role of being a photo-masked base (see FIG. 4B(i)), and a base whose intrinsic functional group properties are altered photochemically (FIG. 4B(iii)).
Referring to FIG. 5A(iii), Compound C and Compound D were examined in an effort to find a base that was reversibly basic but also more resistant to degradation.

[5] = Acid-triggered diazonium formation; details: methanolic HCl or exposure to acid; trapped with resorcinol or Tyr 6
Text: as §3
To further examine the reactivity of this class of compounds, variants Compound 6d and Compound 6e were synthesized (see FIG. 6G). It was hypothesized that the p-methoxy and p-nitro analogs (Compound 6d and Compound 6e, respectively) would display different reactivity profiles. […] After collecting the precipitate and dissolving it in deuterated methanol, no change was observed from a sample of Compound 6e that had never been exposed to a buffered solution. […]

Effect of substituent on rate of deprotection / hydrolysis [1]: slowed hydrolysis
Compound: CCOC(=O)N(N=Nc1n(-c2c(C)cc(C)cc2C)cc[n+]1-c1c(C)cc(C)cc1C)c1ccc([N+](=O)[O-])cc1.[Cl-] [Compound 11]

Compound consumed after 24 hours ([2]; NMR): 50%
Compound: CC(C)(C)n1ccn(CCCS(=O)(=O)O)c1=NN=Nc1ccccc1 [Compound 6b]

Compound consumed after 24 hours ([2]; NMR): less than 10%
Compound consumed after 6 hours ([2]; non-buffered 90:10 H2O:D2O): > 7%
pH at centre of sigmoidal correlation between decomposition rate and buffer pH ([2]; phosphate/citrate pH 4-7 and phosphate pH 6-8 buffers, 90:10 H2O:D2O): 6
Compound: Cc1cc(C)c(-n2ccn(CCCS(=O)(=O)[O-])c2=NN=Nc2ccccc2)c(C)c1.[K+] [Compound 6c, Potassium 3-(3-mesityl-2-(phenyltriaz-2-en-1-ylidene)-2,3-dihydro-1H-imidazol-1-yl) propane-1-sulfonate]

Effect of substituent on rate of deprotection / hydrolysis [1]: small change in rate
Compound: Cc1cc(C)c(-n2cc[n+](-c3c(C)cc(C)cc3C)c2N=NN(C(=O)OC(C)C)c2ccccc2)c(C)c1.[Cl-] [Compound 13]

Effect of substituent on rate of deprotection / hydrolysis [1]: rate could not be determined
Compound: CCOC(=O)N(N=Nc1n(-c2c(C)cc(C)cc2C)cc[n+]1-c1c(C)cc(C)cc1C)c1ccc(OC)cc1.[Cl-] [Compound 9]

Effect of substituent on rate of deprotection / hydrolysis [1]: small change in rate
Compound: Cc1cc(C)c(-n2cc[n+](-c3c(C)cc(C)cc3C)c2N=NN(C(=O)OCC(C)(C)C)c2ccccc2)c(C)c1.[Cl-] [Compound 12]

Relative rate of light-induced degradation [3]: recalcitrant to degradation
Compound: Cc1cc(C)c(-n2ccn(CCCS(=O)(=O)[O-])c2=NN=Nc2ccc([N+](=O)[O-])cc2)c(C)c1.[K+] [Compound E]

Compound: Cn1ccn(CCCS(=O)(=O)O)c1=NN=Nc1ccccc1 [Compound 6a]
Compound consumed after 24 hours ([2]; NMR): 50%
Water solubility (Solubility observations): highly water soluble

Compound consumed after 24 hours ([2]; NMR): 26%
Compound: COc1ccc(N=NN=c2n(CCCS(=O)(=O)[O-])ccn2-c2c(C)cc(C)cc2C)cc1.[K+] [Compound 6d]

Relative rate of light-induced degradation [3]: slower than Compound A
pH change on irradiation [4]: slow subtle change to the pH
Compound: Cc1cc(C)c(-n2ccn(CCCS(=O)(=O)[O-])c2=NN=Nc2cccc([N+](=O)[O-])c2)c(C)c1.[K+] [Compound C]

Effect of substituent on rate of deprotection / hydrolysis [1]: slowed hydrolysis
Compound: CCOC(=O)N(N=Nc1n(-c2c(C)cc(C)cc2C)cc[n+]1-c1c(C)cc(C)cc1C)c1ccc(C(F)(F)F)cc1.[Cl-] [Compound 10]

Compound: CCOC(=O)N(N=Nc1n(-c2c(C)cc(C)cc2C)cc[n+]1-c1c(C)cc(C)cc1C)c1ccc(C)cc1.[Cl-] [Compound 8]
Effect of substituent on rate of deprotection / hydrolysis [1]: slowed the rate of deprotection moderately

Response to acid (diazonium formation) [5]: immediate color change
Behaviour in buffered solution (solubility) (Solubility observations; pH 5, 6 and 7 phosphate/citrate buffer): rapidly precipitated out of solution
Compound: Cc1cc(C)c(-n2ccn(CCCS(=O)(=O)[O-])c2=NN=Nc2ccc([N+](=O)[O-])cc2)c(C)c1.[K+] [Compound 6e]
Stability after 24 hours ([2]; pure D2O, dark, room temperature, NMR): stable to within the detection limit of NMR

Compound: Cn1ccn(C)c1=NN=Nc1ccccc1 [Compound 4]
Response to acid (diazonium formation) [5]: rapid color change
Water solubility (Solubility observations): not water-soluble

Relative rate of light-induced degradation [3]: slower than Compound A
pH change on irradiation [4]: slow subtle change to the pH
Compound: Cc1cc(C)c(-n2ccn(CCCS(=O)(=O)[O-])c2=NN=Nc2ccc(C#N)cc2)c(C)c1.[K+] [Compound D]

Reference: patent US10472330B2, “Substituted triazenes protected from degradation by carboxylation of N1” (ARIZONA BOARD OF REGENTS ON BEHALF OF THE UNIVERSITY OF …, priority 2015, dated 2019)
